# Target: α-bungarotoxin-binding nicotinic receptors on primary human macrophages (Homo sapiens, UniProt P36544)
# Sequence (P36544 23-502): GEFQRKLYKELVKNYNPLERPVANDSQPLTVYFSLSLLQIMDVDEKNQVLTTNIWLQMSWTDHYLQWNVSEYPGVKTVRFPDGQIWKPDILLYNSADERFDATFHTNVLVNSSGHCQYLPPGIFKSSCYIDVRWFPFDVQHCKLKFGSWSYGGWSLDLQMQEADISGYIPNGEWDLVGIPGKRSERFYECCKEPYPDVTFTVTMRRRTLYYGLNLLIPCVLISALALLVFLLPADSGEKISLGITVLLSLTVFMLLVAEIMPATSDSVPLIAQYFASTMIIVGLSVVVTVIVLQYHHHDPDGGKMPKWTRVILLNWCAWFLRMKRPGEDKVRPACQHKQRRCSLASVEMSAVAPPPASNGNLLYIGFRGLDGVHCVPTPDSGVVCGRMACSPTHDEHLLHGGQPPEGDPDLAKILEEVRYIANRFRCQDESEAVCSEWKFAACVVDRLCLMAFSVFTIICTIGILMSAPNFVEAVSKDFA
Compound,effect on intensity of α-bungarotoxin binding,binding on the macrophage surface
CN1CCCC1c1cccnc1 (centres unmarked) [Nicotine],markedly reduced,–
α-bungarotoxin,–,Strong binding

# — patent publication US8524866B2, “Antibodies to the alpha-7 nicotinic receptors and methods of treating inflammatory disorders with the same” (The Feinstein Institute for Medical Research, priority 2005, dated 2013)
